Results as given in US20110195432A1, “METHODS FOR THE SELECTION OF THERAPEUTIC TREATMENTS FOR CANCER” (priority 2008, published 2011).
“Also recorded” adds a separate entry of the source.

What was measured:
HDAC6 [1] = experiment: Western blot of HDAC6 protein levels, LNCaP cells; assay type: cell-based
AR [2] = experiment: Real-time PCR of AR gene expression, LNCaP cells; assay type: cell-based
Source text: (§1) All samples were run in triplicate. The vehicle-treated sample was set to 1.

HDAC6 [3] = conditions: LNCaP cells; sulforaphane versus vehicle
Procedure: as §1
LNCaP cells were transiently transfected with pCDNA3.1 empty vector (Invitrogen, Carlsbad, Calif.) or FLAG-tagged HDAC6 expression vector (Addgene, Cambridge, Mass.) using Lipofectamine LTX and Plus reagents (Invitrogen, Carlsbad, Calif.). Forty-eight hours later, media was replaced for a 16-hour treatment with […] sulforaphane or vehicle. Levels of FLAG, HDAC6, AR, acetylated alpha-tubulin, and actin were measured by Western blot.

acetylated alpha-tubulin = experiment: Western blot of acetylated alpha-tubulin, LNCaP cells; assay type: cell-based
Procedure: The vehicle sample was set to 1.
LNCaP cells were transiently transfected with either a siRNA sequence complementary to the luciferase gene ([…]; SEQ ID NO: 8) or to HDAC6 ([…]; SEQ ID NO: 9) using DharmaFECT 3 transfection reagent for a final concentration of 100 nM (Dharmacon, Lafayette, Colo.). At 48, 72, and 96 hours post-transfection, cells were harvested. Levels of protein expression by Western blot were quantified.

PSA and TMPRSS2-ERG = conditions: VCaP cells; 24 hours; increasing doses; vehicle set to 1
Procedure: To determine the functional consequences of sulforaphane-mediated reduction in AR protein levels, real-time PCR was conducted for several AR target genes, including PSA and the TMPRSS2-ERG gene fusion present in VCaP cells (FIGS. 5A-C). Cells were lysed in Trizol (Invitrogen, Carlsbad, Calif.) and then purified with the RNAEasy Kit (Qiagen, Valencia, Calif.). One μg of RNA was reverse-transcribed using the Omniscript RT kit (Qiagen, Valencia, Calif.). Real-time PCR primer sequences and conditions were as follows.
The real-time PCR program consisted of: 50° C. for 2 minutes for 1 cycle; 95° C. for 10 minutes for 1 cycle; 95° C. for 15 seconds and 60° C. for 15 seconds for a total of 40 cycles. Standard curves were generated by measuring expression of target genes and 18S rRNA in serial dilutions of a mock-treated control. All samples were run in triplicate. The vehicle-treated sample was set to 1.

PSA ARE = conditions: LNCaP cells; 20 μM sulforaphane, 24 hours; versus vehicle-treated cells
Procedure: To determine whether AR protein depletion from its target genes' androgen response elements (AREs) was responsible for reduced target gene expression, chromatin immunoprecipitation (ChIP) was performed. Cells were cross-linked with formaldehyde and reactions were stopped with glycine. Crosslinked cells were re-suspended in RIPA with SigmaFast protease inhibitors tablets (Sigma, St. Louis, Mo.) and sonicated on ice using a Branson Digital Sonifer model 450 (Branson Ultrasonics Co., Danbury, Conn.). Sonicated cellular lysates were used for Matrix ChIP (Flanagin et al., Nucleic Acids Res 36: e17, 2008) Immunoprecipitations were performed without adding an antibody or with 500 ng of an anti-AR antibody. PCR reactions were amplified using a thermocycler (see supplementary methods). ChIP PCR primer sequences were as follows:
Primers were synthesized by IDT (Coralville, Iowa). ChIP PCR program consisted of: 95° C. for 5 minutes for 1 cycle; 95° C. for 30 seconds, 58° C.(TMPRSS2-ERG) or 60° C. (PSA) for 30 seconds, and 72° C. for 30 seconds for 35-40 cycles; 72° C. final extension for 5 minutes. […] Bands were imaged for densitometry using a Gel Doc XR UV transilluminator and Quantity One software (Bio-Rad, Hercules, Calif.).

AR [4] = experiment: Western blot of AR protein levels, LNCaP cells; assay type: cell-based
HSP90 and AR = system: HSP90 and AR
Procedure: (§2) LNCaP and VCaP cells were grown according to ATCC instructions. Sulforaphane (SFN, #S4441 Sigma, St. Louis, Mo.) was re-suspended in DMSO. Vehicle-treated cells received the respective vehicle controls Immunoprecipitations were carried out after treatment with sulforaphane (20 μM) or vehicle for 4 hours followed by a Western blot for HSP90 and AR. Enrichment was quantified for each immunoprecipitation. Inputs were probed with the indicated antibodies by Western blot and were quantified.
(§3) Immunoprecipitation and immunoblotting were performed as described (Qian et al., Clin. Cancer Res. 12:634-42, 2006). The following antibodies used in immunoblotting or immunoprecipitations (indicated dilutions are for immunoblotting): AR (1:1000, #06-680 Upstate, Billerica, Mass.); acetylated lysine (#05-515 Upstate, Billerica, Mass.); acetylated tubulin (1:2000, #T6793 Sigma, St. Louis, Mo.); alpha-tubulin (1:10,000, #T6074 Sigma, St. Louis, Mo.); beta-actin (1:5000, #A5441 Sigma, St. Louis, Mo.); ERG-1/2/3, (1:5000, #sc-354X Santa Cruz, Santa Cruz, Calif.); FLAG epitope (#F7425 Sigma, St. Louis, Mo.); GAPDH (1:5000, #sc-32233 Santa Cruz, Santa Cruz, Calif.); HDAC6 (1:1000, #sc-11420 Santa Cruz); HSP90 (1:1000, #SPA-840 Stressgen, Ann Arbor, Mich.); mouse IgG (#sc-2025 Santa Cruz, Santa Cruz, Calif.). The following secondary antibodies were used: ECL-conjugated anti-mouse IgG, (1:5000, #A6782 Sigma, St. Louis, Mo.); ECL-conjugated anti-rabbit IgG (1:3000, #NA934 Amersham, Piscataway, N.J. or 1:10,000, #sc-2004 Santa Cruz, Santa Cruz, Calif.). X-ray exposures were scanned as uncompressed images and bands were quantified by densitometry with Quantity One software (Bio-Rad, Hercules, Calif.). Intensity values were normalized to those of the endogenous controls. The vehicle sample was set to 1. Enrichment was calculated as: (intensity IP/intensity input)/(intensity IgG/intensity input) or intensity IP/input (FIG. 1B).

HSP90 = conditions: sulforaphane 20 μM
Procedure: as §2, §3

[5] = FLAG-HDAC6 transfected LNCaP cells, sulforaphane-treated, versus empty-vector, sulforaphane-treated cells
[6] = empty-vector transfected LNCaP cells, 16-hour treatment with 15 nM sulforaphane versus vehicle
[7] = 4 hour treatment, vehicle versus sulforaphane

SMILES: C[S+]([O-])CCCCN=C=S (stereo not shown) [sulforaphane, 1-Isothiocyanato-4-methylsulfinylbutane]
- HDAC6 protein levels at later time points (HDAC6 [1]; 16 hours): reduced HDAC6 protein levels
- HDAC6 protein expression in HDAC6-over-expressing cells (HDAC6 [1]; [5]): restored
- HDAC6 protein levels with concomitant proteasome inhibitor (HDAC6 [1]; LNCaP cells, 16 hours, 20 μM sulforaphane with 20 μM MG132 versus sulforaphane-treated cells): restored HDAC6 protein levels
- levels of HDAC6 in input whole cell lysate (HDAC6 [1]; LNCaP cells, early time point, 4 hours, versus vehicle): similar; also recorded: without changing its levels
- HDAC6 protein levels (HDAC6 [1]; [6]): reduced
- AR transcript levels at highest dose (AR [2]; 20 μM): declined
- AR transcripts (AR [2]; increasing doses of sulforaphane, or TSA, vehicle set to 1): not consistently suppressed
- HDAC6 transcript levels (HDAC6 [3]): reduce HDAC6 transcript levels
- alpha-tubulin acetylation in HDAC6-over-expressing cells (acetylated alpha-tubulin; [5]): blunted
- acetylated tubulin (acetylated alpha-tubulin; [6]): increased
- levels of acetylated tubulin in input whole cell lysate (acetylated alpha-tubulin; sulforaphane 20 μM, 4 hours, versus vehicle): increased levels of acetylated alpha-tubulin
- AR target gene expression (PSA, TMPRSS2-ERG) (PSA and TMPRSS2-ERG): dose-dependent reduction
- enrichment of AR at the PSA ARE (PSA ARE): reduced enrichment
- levels of AR in input whole cell lysate (AR [4]; [7]): similar
- AR protein depletion in HDAC6-over-expressing cells (AR [4]; [5]): attenuated
- AR protein levels (AR [4]; LNCaP cells, 12 hours, highest doses tested (10-20 μM)): decreased
- onset of AR protein decline (AR [4]; after sulforaphane treatment): 6 to 12 h
- AR protein (AR [4]; [6]): decreased
- interaction between HSP90 and AR (HSP90 and AR; 4 hour sulforaphane treatment, as opposed to vehicle): disrupted
- Levels of acetylation of the AR (HSP90 and AR; [7]): similar
- enrichment of acetylated lysines on the HSP90 protein (HSP90; LNCaP cells, four hours, versus vehicle-treated cells): increased enrichment of acetylated lysines on the HSP90 protein
- levels of HSP90 in input whole cell lysate (HSP90; 4 hours, versus vehicle): similar
